Data taken from US4298727A, “3',4'-Dideoxykanamycin A and 1-N-(S)-α-hydroxy-ω-aminoalkanoyl) derivatives thereof” (Zaidan Hojin Biseibutsu Kagaku KenkyuKai, priority 1979, dated 1981).
Values after ≈ are worked out from the molar mass of the structure shown. Read-outs that look alike come from different tables or passages of the source.

Experiments:
[1] = test system: Staphylococcus aureus 209P; experiment: MIC, standard serial dilution on nutrient agar; type: cell-based; settings: Staphylococcus aureus, 209P, 18 h
Experimental: (§2) The minimum inhibitory concentrations (mcg/ml) of the new compounds of this invention against various microorganisms were determined according to a standard serial dilution method using nutrient agar incubation medium at 37° C., the estimation being made after 18 hours incubation.

[2] = test system: Staphylococcus aureus APOI; experiment: MIC, standard serial dilution on nutrient agar; type: cell-based; settings: Staphylococcus aureus, 18 h
Experimental: as §2

[3] = test system: Staphylococcus epidermides 109; experiment: MIC, standard serial dilution on nutrient agar; type: cell-based; settings: Staphylococcus, 109, 18 h
Experimental: as §2

Sarcina lutea PCI 1001 = experiment: MIC, standard serial dilution on nutrient agar; type: cell-based; settings: Micrococcus luteus, PCI1001, 18 h
Experimental: as §2

[4] = test system: Klebsiella pneumoniae 22 #3038; experiment: MIC, standard serial dilution on nutrient agar; type: cell-based; settings: Klebsiella pneumoniae, 18 h
Escherichia coli K-12 = experiment: MIC, standard serial dilution on nutrient agar; type: cell-based; settings: K12, 37° C., 18 hours
[5] = test system: Escherichia coli K-12 ML 1629; experiment: MIC, standard serial dilution on nutrient agar; type: cell-based; settings: K12ML1629, 37° C., 18 hours
[6] = test system: Pseudomonas aeruginosa A3; experiment: MIC, standard serial dilution on nutrient agar; type: cell-based; settings: Pseudomonas aeruginosa, A3, 18 h
Experimental: as §2

Klebsiella THO = experiment: MIC, standard serial dilution on nutrient agar; type: cell-based
Experimental: as §2

Klebsiella HOU = experiment: MIC, standard serial dilution on nutrient agar; type: cell-based; settings: Klebsiella, 18 h
Experimental: as §2

Klebsiella BRIA = experiment: MIC, standard serial dilution on nutrient agar; type: cell-based
Experimental: as §2

Serratia CAT = experiment: MIC, standard serial dilution on nutrient agar; type: cell-based; settings: Serratia, 18 h
Experimental: as §2

Serratia BOT = experiment: MIC, standard serial dilution on nutrient agar; type: cell-based; settings: Serratia, 18 h
Experimental: as §2

Serratia 7 = experiment: MIC, standard serial dilution on nutrient agar; type: cell-based; settings: Serratia, 7, 18 h
Experimental: as §2

Providencia 19 = experiment: MIC, standard serial dilution on nutrient agar; type: cell-based; settings: Providencia, 19, 18 h
Experimental: as §2

Providencia ZAO = experiment: MIC, standard serial dilution on nutrient agar; type: cell-based; settings: Providencia, 18 h
Experimental: as §2

Providencia Pv 37 = experiment: MIC, standard serial dilution on nutrient agar; type: cell-based; settings: PV37, 37° C., 18 hours
Experimental: as §2

Proteus vulgaris BAC = experiment: MIC, standard serial dilution on nutrient agar; type: cell-based; settings: Proteus vulgaris, 18 h
Experimental: as §2

Proteus rettgeri AUB = experiment: MIC, standard serial dilution on nutrient agar; type: cell-based; settings: Providencia rettgeri
Experimental: as §2

Enterobacter 666 = experiment: MIC, standard serial dilution on nutrient agar; type: cell-based; settings: 37° C., 18 hours
Experimental: as §2

Enterobacter HAU = experiment: MIC, standard serial dilution on nutrient agar; type: cell-based; settings: Enterobacter, 18 h
Experimental: as §2

Erwinia 7-22 = experiment: MIC, standard serial dilution on nutrient agar; type: cell-based; settings: 722, 37° C., 18 hours
Experimental: as §2

Pyocyanique = experiment: MIC, standard serial dilution on nutrient agar; type: cell-based; settings: 18 h
Experimental: as §2

[7] = acute toxicity, intravenous injection in mice; type: in vivo; settings: mouse, in vivo
Excerpt: (§1) Therefore, the new compounds of this invention are useful in therapeutic treatment of infections by various gram-negative and gram-positive bacteria, including the resistant bacterial strains. […] Accordingly, the low toxicity of the above new compounds of general formula (I) according to this invention is note-worthy, and the low toxicity of the new compounds of this invention with retaining the antibacterial activity substantially as high as that of the above-described known drugs will facilitate the clinical use of the new compounds, fulfilling the modern demand for providing efficient and less toxic drugs.

resistant bacteria = settings: in words, background art; cited from earlier work
[8] = test system: Staphylococcus aureus MS 9610; experiment: MIC, standard serial dilution on nutrient agar; type: cell-based; settings: Staphylococcus aureus, MS9610, 18 h
[9] = test system: Staphylococcus aureus MS 9883; experiment: MIC, standard serial dilution on nutrient agar; type: cell-based; settings: MS9883; Staphylococcus aureus MS 9883; nutrient agar, 37° C., 18 hours; read-out: MIC.
mice = experiment: acute toxicity, intravenous injection in mice; type: in vivo
Excerpt: as §1

## NC[C@@H]1CC[C@@H](N)[C@@H](O[C@H]2[C@H](O)[C@@H](O[C@H]3O[C@H](CO)[C@@H](O)[C@H](N)[C@H]3O)[C@H](N)C[C@@H]2N)O1 [Dibekacin, 3',4'-dideoxykanamycin B]
[1]
  MIC: 0.78 µg/mL (≈ 1.73 µM)
[2]
  MIC: 0.78 µg/mL (≈ 1.73 µM)
[3]
  MIC: 0.78 µg/mL (≈ 1.73 µM)
Sarcina lutea PCI 1001
  MIC: 25 µg/mL (≈ 55.4 µM)
[4]
  MIC: > 100 µg/mL
Escherichia coli K-12
  MIC: 1.56 µg/mL (≈ 3.45 µM)
[5]
  MIC: 1.56 µg/mL (≈ 3.45 µM)
[6]
  MIC: 0.78 µg/mL (≈ 1.73 µM)
Klebsiella THO; Klebsiella, 18 h
  MIC: 1.56 µg/mL (≈ 3.45 µM)
Klebsiella HOU
  MIC: > 100 µg/mL
Klebsiella BRIA; Klebsiella, 18 h
  MIC: > 100 µg/mL
Serratia CAT
  MIC: 6.25 µg/mL (≈ 13.8 µM)
Serratia BOT
  MIC: 25 µg/mL (≈ 55.4 µM)
Serratia 7
  MIC: > 100 µg/mL
Providencia 19
  MIC: > 100 µg/mL
Providencia ZAO
  MIC: > 100 µg/mL
Providencia Pv 37
  MIC: > 100 µg/mL
Proteus vulgaris BAC
  MIC: 12.5 µg/mL (≈ 27.7 µM)
Proteus rettgeri AUB; 18 h
  MIC: 100 µg/mL (≈ 221 µM)
Enterobacter 666
  MIC: > 100 µg/mL
Enterobacter HAU
  MIC: > 100 µg/mL
Erwinia 7-22
  MIC: > 100 µg/mL
Pyocyanique
  MIC: 6.25 µg/mL (≈ 13.8 µM)
[7]
  LD50: 80 to 120 mg/kg
Resistant bacteria
  activity against resistant bacteria: remarkably active against a wide variety of resistant bacteria

## NCC[C@H](O)C(=O)N[C@@H]1C[C@H](N)[C@@H](O[C@H]2O[C@H](CN)[C@@H](O)[C@H](O)[C@H]2O)[C@H](O)[C@H]1O[C@H]1O[C@H](CO)[C@@H](O)[C@H](N)[C@H]1O [Amikacin, 1-N-((S)-2-hydroxy-4-aminobutyryl)-kanamycin A]
[1]
  MIC: 3.12 µg/mL (≈ 5.33 µM)
[2]
  MIC: 1.56 µg/mL (≈ 2.66 µM)
[8]
  MIC: 3.12 µg/mL (≈ 5.33 µM)
[9]
  MIC: 6.25 µg/mL (≈ 10.7 µM)
[3]
  MIC: 3.12 µg/mL (≈ 5.33 µM)
Sarcina lutea PCI 1001
  MIC: 3.12 µg/mL (≈ 5.33 µM)
[4]
  MIC: 3.12 µg/mL (≈ 5.33 µM)
Escherichia coli K-12
  MIC: 1.56 µg/mL (≈ 2.66 µM)
[5]
  MIC: 1.56 µg/mL (≈ 2.66 µM)
[6]
  MIC: 1.56 µg/mL (≈ 2.66 µM)
Klebsiella THO; Klebsiella THO, nutrient agar, 37° C., 18 hours, read-out: MIC.
  MIC: 6.25 µg/mL (≈ 10.7 µM)
Klebsiella HOU
  MIC: 12.5 µg/mL (≈ 21.3 µM)
Klebsiella BRIA; Klebsiella BRIA, nutrient agar, 37° C., 18 hours, read-out: MIC.
  MIC: 6.25 µg/mL (≈ 10.7 µM)
Serratia CAT
  MIC: 12.5 µg/mL (≈ 21.3 µM)
Serratia BOT
  MIC: 12.5 µg/mL (≈ 21.3 µM)
Serratia 7
  MIC: 12.5 µg/mL (≈ 21.3 µM)
Providencia 19
  MIC: 12.5 µg/mL (≈ 21.3 µM)
Providencia ZAO
  MIC: 12.5 µg/mL (≈ 21.3 µM)
Providencia Pv 37
  MIC: 12.5 µg/mL (≈ 21.3 µM)
Proteus vulgaris BAC
  MIC: 3.12 µg/mL (≈ 5.33 µM)
Proteus rettgeri AUB; Proteus rettgeri AUB, nutrient agar, 37° C., 18 hours, read-out: MIC.
  MIC: 6.25 µg/mL (≈ 10.7 µM)
Enterobacter 666
  MIC: 1.56 µg/mL (≈ 2.66 µM)
Enterobacter HAU
  MIC: 50 µg/mL (≈ 85.4 µM)
Erwinia 7-22
  MIC: 1.56 µg/mL (≈ 2.66 µM)
Pyocyanique
  MIC: 50 µg/mL (≈ 85.4 µM)
Resistant bacteria
  activity against resistant bacteria: cannot be inactivated by the kanamycin-resistant bacteria

## gentamicin
mice
  LD50 value (acute toxicity): 80 to 120 mg/kg

## 1-N-((S)-2-hydroxy-4-aminobutyryl)-5-O-β-D-xylofuranosyl- or ribofuranosyl-neamine [butirosins]
Resistant bacteria
  activity against resistant bacteria: active against some kanamycin- and ribostamycin-resistant bacteria
